Test results as given in patent US10214542B2, “Modified macrocyclic compounds” (BAYER PHARMA AKTIENGESELLSCHAFT, priority 2015, dated 2019).

Columns and labels:
CDK2/CycE = biological target: T1, CDK2/CycE (Homo sapiens, UniProt P24941); experiment: CDK2/CycE kinase assay (TR-FRET, Method 2a); type: biochemical; settings: 10 μM ATP
T1 construct: GST; purchased ProQinase GmbH (Freiburg, Germany); host or cells: insect cells (Sf9)
Excerpt: 2a. CDK2/CycE Kinase Assay:
CDK2/CycE-inhibitory activity of compounds of the present invention was quantified employing the CDK2/CycE TR-FRET assay as described in the following paragraphs:
Recombinant fusion proteins of GST and human CDK2 and of GST and human CycE, expressed in insect cells (Sf9) and purified by Glutathion-Sepharose affinity chromatography, were purchased from ProQinase GmbH (Freiburg, Germany). As substrate for the kinase reaction biotinylated peptide biotin-Ttds-YISPLKSPYKISEG (C-terminus in amid form) was used which can be purchased e.g. from the company JERINI Peptide Technologies (Berlin, Germany).
(§1) For the assay 50 nl of a 100 fold concentrated solution of the test compound in DMSO was pipetted into a black low volume 384 well microtiter plate (Greiner Bio-One, Frickenhausen, Germany), 2 μl of a solution of CDK2/CycE in aqueous assay buffer [50 mM Tris/HCl pH 8.0, 10 mM MgCl2, 1.0 mM dithiothreitol, 0.1 mM sodium ortho-vanadate, 0.01% (v/v) Nonidet-P40 (Sigma)] were added and the mixture was incubated for 15 min at 22° C. to allow pre-binding of the test compounds to the enzyme before the start of the kinase reaction. […] The concentration of CDK2/CycE was adjusted depending of the activity of the enzyme lot and was chosen appropriate to have the assay in the linear range, typical concentrations were in the range of 130 ng/mL. The reaction was stopped by the addition of 5 μl of a solution of TR-FRET detection reagents (0.2 μM streptavidine-XL665 [Cisbio Bioassays, Codolet, France] and 1 nM anti-RB(pSer807/pSer811)-antibody from BD Pharmingen [#558389] and 1.2 nM LANCE EU-W1024 labeled anti-mouse IgG antibody [Perkin-Elmer, product no. AD0077]) in an aqueous EDTA-solution (100 mM EDTA, 0.2% (w/v) bovine serum albumin in 100 mM HEPES pH 7.5).
(§2) The resulting mixture was incubated 1 h at 22° C. to allow the formation of complex between the phosphorylated biotinylated peptide and the detection reagents. Subsequently the amount of phosphorylated substrate was evaluated by measurement of the resonance energy transfer from the Eu-chelate to the streptavidine-XL. Therefore, the fluorescence emissions at 620 nm and 665 nm after excitation at 350 nm was measured in a TR-FRET reader, e.g. a Rubystar (BMG Labtechnologies, Offenburg, Germany) or a Viewlux (Perkin-Elmer). The ratio of the emissions at 665 nm and at […] was taken as the measure for the amount of phosphorylated substrate. The data were normalised (enzyme reaction without inhibitor=0% inhibition, all other assay components but no enzym=100% inhibition).

CDK9/CycT1 = biological target: T2, CDK9/CycT1 (Homo sapiens, UniProt P50750); experiment: CDK9/CycT1 high ATP kinase assay (TR-FRET, Method 1b); type: biochemical; settings: 2 mM ATP; for IC50: Method 1b; for Selectivity high ATP CDK9 over high ATP CDK2: IC50 (high ATP CDK2)/IC50 (high ATP CDK9): Methods 1b and 2b
T2 construct: Recombinant full-length His-tagged human CDK9 and CycT1; His; purchased Invitrogen PV4131; host or cells: insect cells
T2 sequence (P50750 whole entry): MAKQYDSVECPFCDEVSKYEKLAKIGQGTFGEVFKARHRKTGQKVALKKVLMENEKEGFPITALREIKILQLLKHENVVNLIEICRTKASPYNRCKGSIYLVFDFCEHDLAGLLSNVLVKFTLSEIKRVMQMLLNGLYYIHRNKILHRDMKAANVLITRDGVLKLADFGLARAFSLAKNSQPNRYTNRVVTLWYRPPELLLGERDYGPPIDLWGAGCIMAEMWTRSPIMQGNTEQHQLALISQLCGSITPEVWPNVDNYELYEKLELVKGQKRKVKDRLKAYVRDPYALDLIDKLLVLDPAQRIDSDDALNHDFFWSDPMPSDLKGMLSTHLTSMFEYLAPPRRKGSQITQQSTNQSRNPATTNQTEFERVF
T2 sequence (O60563 whole entry partner): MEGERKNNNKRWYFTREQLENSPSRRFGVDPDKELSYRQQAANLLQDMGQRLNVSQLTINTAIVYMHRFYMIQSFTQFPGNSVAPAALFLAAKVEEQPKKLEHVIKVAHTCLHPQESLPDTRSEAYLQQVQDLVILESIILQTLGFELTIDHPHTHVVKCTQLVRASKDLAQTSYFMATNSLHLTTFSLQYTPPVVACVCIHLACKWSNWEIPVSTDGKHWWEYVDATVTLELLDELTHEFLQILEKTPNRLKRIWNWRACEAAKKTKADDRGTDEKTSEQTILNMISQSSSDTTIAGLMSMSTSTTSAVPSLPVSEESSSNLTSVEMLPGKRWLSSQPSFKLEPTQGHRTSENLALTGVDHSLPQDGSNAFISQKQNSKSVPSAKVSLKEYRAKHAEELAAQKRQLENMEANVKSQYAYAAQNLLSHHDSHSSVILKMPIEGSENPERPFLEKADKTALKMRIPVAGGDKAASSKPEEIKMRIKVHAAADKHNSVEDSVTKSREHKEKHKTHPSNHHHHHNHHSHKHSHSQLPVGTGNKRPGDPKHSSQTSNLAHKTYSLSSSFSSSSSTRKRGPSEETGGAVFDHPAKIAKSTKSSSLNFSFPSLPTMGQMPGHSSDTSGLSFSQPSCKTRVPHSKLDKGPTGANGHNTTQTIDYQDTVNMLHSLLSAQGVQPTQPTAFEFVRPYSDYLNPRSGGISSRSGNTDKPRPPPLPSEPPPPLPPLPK
Method: 1b. CDK9/CycT1 High ATP Kinase Assay
CDK9/CycT1-inhibitory activity of compounds of the present invention at a high ATP concentration after preincubation of enzyme and test compounds was quantified employing the CDK9/CycT1 TR-FRET assay as described in the following paragraphs.
Recombinant full-length His-tagged human CDK9 and CycT1, expressed in insect cells and purified by Ni-NTA affinity chromatography, were purchase from Invitrogen (Cat. No PV4131). As substrate for the kinase reaction biotinylated peptide biotin-Ttds-YISPLKSPYKISEG (C-terminus in amid form) was used which can be purchased e.g. from the company JERINI peptide technologies (Berlin, Germany).
as §1, with “CDK9/CycT1” for “CDK2/CycE”, “0.5 μg/mL.” for “130 ng/mL.”
as §2, with “HTRF” for “TR-FRET”

MOLM-13 cells = experiment: Proliferation assay, Cell Titre-Glo viability (Method 3); type: cell-based; settings: Homo sapiens; MOLM-13, 72-hour exposure; read-out: Inhibition of MOLM-13 cell proliferation IC50
Method: A2780 human ovarian carcinoma cells (ECACC #93112519) and non-adherent MOLM-13 human acute myeloid leukemia cells (DSMZ ACC 554) were seeded at a density of 3,000 cell/well (A2780) or 5,000 cells/well (MOLM-13) in a 96-well multititer plate in 150 μL of growth medium supplemented 10% fetal calf serum. After 24 hours, cell viability of one plate (zero-point plate) was determined with the Cell Titre-Glo Luminescent Cell Viability Assay (Promega), while the medium of the other plates was supplemented with the test substances in various concentrations (0 μM, as well as in the range of 0.0001-10 μM; the final concentration of the solvent dimethyl sulfoxide was adjusted to 0.1%) using a Hewlett-Packard HP D300 Digital Dispenser. Cell viability was assessed after 72-hour exposure with the Cell
Titre-Glo Luminescent Cell Viability Assay (Promega). IC50 values (inhibitory concentration at 50% of maximal effect) were determined by means of a 4 parameter fit on measurement data which were normalized to vehicle (DMSO) treated cells (=100%) and measurement readings taken immediately before compound exposure (=0%).

Compound	IC50 (CDK2/CycE)	IC50 (CDK9/CycT1)	Selectivity high ATP CDK9 over high ATP CDK2: IC50 (high ATP CDK2)/IC50 (high ATP CDK9) (CDK9/CycT1)	IC50 (MOLM-13 cells)
CS(=O)(Cc1cc2nc(c1)Nc1cc(c(F)cn1)-c1ccc(F)cc1OCCCCN2)=NC(=O)OCc1ccccc1 (racemic) [Example 2, (rac)-Benzyl[{[16,20-difluoro-3,4,5,6-tetrahydro-2H,12H-11,7-(azeno)-13,17-(metheno)-1,6,12,14-benzoxatriazacyclononadecin-9-yl]methyl}(methyl)oxido-λ^6-sulfanylidene]carbamate]	0.698 µM	0.0127 µM	634	0.003 µM
CS(=N)(=O)Cc1cc2nc(c1)Nc1cc(c(F)cn1)-c1ccc(F)cc1OCCCCN2 (racemic) [Example 3, (rac)-16,20-Difluoro-9-[(S-methylsulfonimidoyl)methyl]-3,4,5,6-tetrahydro-2H,12H-11,7-(azeno)-13,17-(metheno)-1,6,12,14-benzoxatriazacyclononadecine]	0.044 µM	0.0039 µM	167	0.0034 µM
C[S+]([O-])Cc1cc2nc(c1)OCCCCc1cc(F)ccc1-c1cc(ncc1F)N2 (racemic) [Example 5, (rac)-2,18-Difluoro-9-[(methylsulfinyl)methyl]-13,14,15,16-tetrahydro-6H-7,11-(azeno)-5,1-(metheno)-12,4,6-benzoxadiazacyclooctadecine]	0.275 µM	0.006 µM	1375	0.024 µM
CC(C)(C)OC(=O)N=S(C)(=O)Cc1cc2nc(c1)Nc1cc(c(F)cn1)-c1ccc(F)cc1OCCCN2 (racemic) [Example 7, (rac)-tert-butyl[{[15,19-difluoro-2,3,4,5-tetrahydro-11H-10,6-(azeno)-16,12-(metheno)-1,5,11,13-benzoxatriazacyclooctadecin-8-yl]methyl}(methyl)oxido-λ^6-sulfanylidene]carbamate]	0.027 µM	0.0019 µM	32.1	0.0068 µM
CS(=N)(=O)Cc1cc2nc(c1)Nc1cc(c(F)cn1)-c1ccc(F)cc1OCCCN2 (racemic) [Example 8, (rac)-15,19-difluoro-8-[(S-methylsulfonimidoyl)methyl]-2,3,4,5-tetrahydro-11H-10,6-(azeno)-16,12-(metheno)-1,5,11,13-benzoxatriazacyclooctadecine]	0.0091 µM	0.0007 µM	41.4	0.0022 µM
CC(C)(C)OC(=O)N=S(C)(=O)Cc1cc2cc(c1)OCCCNc1cc(F)ccc1-c1nc(ncc1F)N2 (racemic) [Example 13, (rac)-tert-butyl[{[15,19-difluoro-1,2,3,4-tetrahydro-16,12-(azeno)-6,10-(metheno)-5,1,11,13-benzoxatriazacyclooctadecin-8(11H)-yl]methyl}(methyl)oxido-λ^6-sulfanylidene]carbamate]		0.003 µM	426	0.014 µM
CS(=N)(=O)Cc1cc2cc(c1)OCCCNc1cc(F)ccc1-c1nc(ncc1F)N2 (racemic) [Example 14, rac-15,19-difluoro-8-[(S-methylsulfonimidoyl)methyl]-1,2,3,4-tetrahydro-16,12-(azeno)-6,10-(metheno)-5,1,11,13-benzoxatriazacyclooctadecine]		0.001 µM	94	0.0031 µM
CC(C)(C)OC(=O)N=S(C)(=O)Cc1cc2cc(c1)OCCCCSc1cc(F)ccc1-c1nc(ncc1F)N2 (racemic) [Example 21, (rac)-tert-butyl[{[16,20-difluoro-2,3,4,5-tetrahydro-12H-17,13-(azeno)-11,7-(metheno)-6,1,12,14-benzoxathiadiazacyclononadecin-9-yl]methyl}(methyl)oxido-λ^6-sulfanylidene]carbamate]		0.013 µM	915	0.162 µM
CS(=N)(=O)Cc1cc2cc(c1)OCCCCSc1cc(F)ccc1-c1nc(ncc1F)N2 (racemic) [Example 22, (rac)-16,20-difluoro-9-[(S-methylsulfonimidoyl)methyl]-2,3,4,5-tetrahydro-12H-17,13-(azeno)-11,7-(metheno)-6,1,12,14-benzoxathiadiazacyclononadecine]		0.0045 µM	244	0.023 µM
CC(C)(C)OC(=O)N=S(C)(=O)Cc1cc2cc(c1)Nc1ncc(F)c(n1)-c1ccc(F)cc1OCCCCN2 (racemic) [Example 24, (rac)-tert-butyl[{[16,20-difluoro-3,4,5,6-tetrahydro-2H,12H-13,17-(azeno)-11,7-(metheno)-1,6,12,14-benzoxatriazacyclononadecin-9-yl]methyl}(methyl)oxido-λ^6-sulfanylidene]carbamate]	2.57 µM	0.044 µM	>454	
CSCc1cc2nc(c1)OCCCCCc1cc(F)ccc1-c1cc(ncc1F)N2 [Example 18, 2,19-difluoro-9-[(methylsulfanyl)methyl]-14,15,16,17-tetrahydro-6H,13H-7,11-(azeno)-5,1-(metheno)-12,4,6-benzoxadiazacyclononadecine]	2.56 µM	0.246 µM	>81.3	
